According to ChEMBL document CHEMBL5653631, “A Potent and Selective ULK1 Inhibitor Suppresses Autophagy and Sensitizes Cancer Cells to Nutrient Stress” (iScience, 2018):

Key:
[1] = target: T1, Mitogen-activated protein kinase 12 (Homo sapiens) (UniProt P53778); assay: Inhibition of human recombinant p38gamma at 40 nM related to control ULK1
T1 sequence (whole entry): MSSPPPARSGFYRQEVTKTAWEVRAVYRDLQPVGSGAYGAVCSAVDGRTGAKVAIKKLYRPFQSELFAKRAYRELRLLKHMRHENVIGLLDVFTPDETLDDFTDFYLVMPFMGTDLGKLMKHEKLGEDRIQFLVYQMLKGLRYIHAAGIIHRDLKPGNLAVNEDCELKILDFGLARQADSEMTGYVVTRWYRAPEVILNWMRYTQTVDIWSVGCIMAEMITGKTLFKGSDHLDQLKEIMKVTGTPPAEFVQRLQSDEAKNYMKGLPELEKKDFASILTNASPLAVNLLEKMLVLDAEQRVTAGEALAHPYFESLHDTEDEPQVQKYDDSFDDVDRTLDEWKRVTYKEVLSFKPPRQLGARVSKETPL

[2] = target: T2, Tyrosine-protein kinase Mer (Homo sapiens) (UniProt Q12866); assay: Inhibition of human recombinant MER at 40 nM related to control ULK1
T2 sequence (whole entry): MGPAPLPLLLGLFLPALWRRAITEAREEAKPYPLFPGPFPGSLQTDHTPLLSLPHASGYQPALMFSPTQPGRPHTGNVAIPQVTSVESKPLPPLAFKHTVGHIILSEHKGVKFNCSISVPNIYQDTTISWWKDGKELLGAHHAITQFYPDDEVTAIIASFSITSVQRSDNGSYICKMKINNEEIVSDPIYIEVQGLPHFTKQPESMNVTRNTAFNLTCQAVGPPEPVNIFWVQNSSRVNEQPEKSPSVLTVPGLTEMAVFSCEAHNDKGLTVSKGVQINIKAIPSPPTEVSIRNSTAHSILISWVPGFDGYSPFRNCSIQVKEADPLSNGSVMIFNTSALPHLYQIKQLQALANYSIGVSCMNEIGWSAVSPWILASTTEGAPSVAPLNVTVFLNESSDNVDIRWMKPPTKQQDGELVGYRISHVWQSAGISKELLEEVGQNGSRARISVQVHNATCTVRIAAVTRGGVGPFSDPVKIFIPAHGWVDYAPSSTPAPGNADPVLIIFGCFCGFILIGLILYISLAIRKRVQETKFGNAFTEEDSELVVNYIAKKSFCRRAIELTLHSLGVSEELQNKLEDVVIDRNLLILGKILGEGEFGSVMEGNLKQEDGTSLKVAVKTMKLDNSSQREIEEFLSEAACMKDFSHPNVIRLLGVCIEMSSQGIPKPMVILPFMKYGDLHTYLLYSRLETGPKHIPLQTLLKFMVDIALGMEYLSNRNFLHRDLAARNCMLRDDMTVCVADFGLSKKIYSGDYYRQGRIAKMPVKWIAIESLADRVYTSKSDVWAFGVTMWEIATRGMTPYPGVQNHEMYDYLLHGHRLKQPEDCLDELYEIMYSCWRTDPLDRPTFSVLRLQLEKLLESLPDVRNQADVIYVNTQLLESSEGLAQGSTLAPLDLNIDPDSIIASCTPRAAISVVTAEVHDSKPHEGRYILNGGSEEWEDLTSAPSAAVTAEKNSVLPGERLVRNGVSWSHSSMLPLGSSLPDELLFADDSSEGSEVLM

[3] = target: Platelet-derived growth factor receptor alpha (Homo sapiens) (UniProt P16234); assay: Inhibition of human recombinant PDGFRa at 500 nM in presence of ATP by radiometric assay relative to control
Sequence of Platelet-derived growth factor receptor alpha (Homo sapiens) (P16234 whole entry): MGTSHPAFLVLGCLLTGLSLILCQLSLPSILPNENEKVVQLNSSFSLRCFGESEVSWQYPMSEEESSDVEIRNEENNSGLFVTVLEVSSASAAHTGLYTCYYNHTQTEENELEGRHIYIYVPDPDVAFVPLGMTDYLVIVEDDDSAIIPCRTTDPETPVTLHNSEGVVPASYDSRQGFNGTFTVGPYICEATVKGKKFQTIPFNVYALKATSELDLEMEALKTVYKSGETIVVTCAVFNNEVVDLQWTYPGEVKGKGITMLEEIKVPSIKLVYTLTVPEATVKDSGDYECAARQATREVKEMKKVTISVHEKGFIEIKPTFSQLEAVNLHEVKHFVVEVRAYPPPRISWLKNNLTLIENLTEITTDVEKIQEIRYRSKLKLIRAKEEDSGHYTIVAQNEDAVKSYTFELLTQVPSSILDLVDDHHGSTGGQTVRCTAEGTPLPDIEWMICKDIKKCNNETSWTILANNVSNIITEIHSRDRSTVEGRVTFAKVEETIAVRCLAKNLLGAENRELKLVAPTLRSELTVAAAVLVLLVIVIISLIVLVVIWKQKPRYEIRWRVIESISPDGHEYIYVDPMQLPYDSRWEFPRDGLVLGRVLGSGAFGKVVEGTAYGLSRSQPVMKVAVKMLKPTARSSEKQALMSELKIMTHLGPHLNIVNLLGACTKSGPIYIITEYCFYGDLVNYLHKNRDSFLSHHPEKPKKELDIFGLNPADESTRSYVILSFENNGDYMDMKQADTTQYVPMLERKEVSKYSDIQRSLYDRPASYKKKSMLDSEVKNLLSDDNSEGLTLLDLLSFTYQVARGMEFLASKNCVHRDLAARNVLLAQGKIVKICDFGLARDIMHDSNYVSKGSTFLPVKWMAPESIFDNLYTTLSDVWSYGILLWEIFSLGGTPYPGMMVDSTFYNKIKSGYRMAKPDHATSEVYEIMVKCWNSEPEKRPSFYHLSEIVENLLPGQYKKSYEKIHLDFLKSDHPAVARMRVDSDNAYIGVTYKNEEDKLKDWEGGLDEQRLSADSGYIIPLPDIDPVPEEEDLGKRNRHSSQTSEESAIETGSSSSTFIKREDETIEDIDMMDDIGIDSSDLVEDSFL

[4] = target: Epidermal growth factor receptor (Homo sapiens) (UniProt P00533); assay: Inhibition of human recombinant EGFR at 500 nM in presence of ATP by radiometric assay relative to control
Sequence of Epidermal growth factor receptor (Homo sapiens) (P00533 whole entry): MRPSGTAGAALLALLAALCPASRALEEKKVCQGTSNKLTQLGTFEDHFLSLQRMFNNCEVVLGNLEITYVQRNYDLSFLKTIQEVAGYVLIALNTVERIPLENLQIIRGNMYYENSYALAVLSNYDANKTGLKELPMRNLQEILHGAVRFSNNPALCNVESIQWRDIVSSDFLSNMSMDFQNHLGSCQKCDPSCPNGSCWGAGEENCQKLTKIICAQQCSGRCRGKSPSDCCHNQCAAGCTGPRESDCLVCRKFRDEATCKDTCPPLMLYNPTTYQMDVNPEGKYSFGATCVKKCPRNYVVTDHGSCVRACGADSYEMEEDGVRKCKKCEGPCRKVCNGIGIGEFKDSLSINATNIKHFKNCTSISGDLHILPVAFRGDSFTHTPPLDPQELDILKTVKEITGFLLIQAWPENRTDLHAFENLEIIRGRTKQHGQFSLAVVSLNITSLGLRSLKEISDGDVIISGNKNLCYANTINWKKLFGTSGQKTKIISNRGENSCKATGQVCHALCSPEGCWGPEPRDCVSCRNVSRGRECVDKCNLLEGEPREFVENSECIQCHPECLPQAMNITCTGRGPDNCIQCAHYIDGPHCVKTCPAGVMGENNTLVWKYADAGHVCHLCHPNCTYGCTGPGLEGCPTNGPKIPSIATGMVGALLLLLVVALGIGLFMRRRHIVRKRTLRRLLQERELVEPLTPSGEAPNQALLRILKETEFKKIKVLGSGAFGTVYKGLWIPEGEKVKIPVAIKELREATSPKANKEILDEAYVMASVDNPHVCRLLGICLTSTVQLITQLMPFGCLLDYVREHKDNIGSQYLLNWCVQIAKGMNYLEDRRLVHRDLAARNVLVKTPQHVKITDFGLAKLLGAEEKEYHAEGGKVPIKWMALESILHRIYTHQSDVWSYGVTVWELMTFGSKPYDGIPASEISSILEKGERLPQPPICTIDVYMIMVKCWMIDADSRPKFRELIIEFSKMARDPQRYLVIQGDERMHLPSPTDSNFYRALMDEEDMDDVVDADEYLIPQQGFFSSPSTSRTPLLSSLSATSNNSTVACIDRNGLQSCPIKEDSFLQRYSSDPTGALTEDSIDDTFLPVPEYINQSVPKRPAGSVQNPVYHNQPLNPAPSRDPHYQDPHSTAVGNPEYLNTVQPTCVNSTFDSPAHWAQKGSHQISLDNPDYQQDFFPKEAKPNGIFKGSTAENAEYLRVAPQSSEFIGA

[5] = target: T3, Inhibitor of nuclear factor kappa-B kinase subunit beta (Homo sapiens) (UniProt O14920); assay: Inhibition of human recombinant IKKb at 15 nM related to control ULK1
T3 sequence (whole entry): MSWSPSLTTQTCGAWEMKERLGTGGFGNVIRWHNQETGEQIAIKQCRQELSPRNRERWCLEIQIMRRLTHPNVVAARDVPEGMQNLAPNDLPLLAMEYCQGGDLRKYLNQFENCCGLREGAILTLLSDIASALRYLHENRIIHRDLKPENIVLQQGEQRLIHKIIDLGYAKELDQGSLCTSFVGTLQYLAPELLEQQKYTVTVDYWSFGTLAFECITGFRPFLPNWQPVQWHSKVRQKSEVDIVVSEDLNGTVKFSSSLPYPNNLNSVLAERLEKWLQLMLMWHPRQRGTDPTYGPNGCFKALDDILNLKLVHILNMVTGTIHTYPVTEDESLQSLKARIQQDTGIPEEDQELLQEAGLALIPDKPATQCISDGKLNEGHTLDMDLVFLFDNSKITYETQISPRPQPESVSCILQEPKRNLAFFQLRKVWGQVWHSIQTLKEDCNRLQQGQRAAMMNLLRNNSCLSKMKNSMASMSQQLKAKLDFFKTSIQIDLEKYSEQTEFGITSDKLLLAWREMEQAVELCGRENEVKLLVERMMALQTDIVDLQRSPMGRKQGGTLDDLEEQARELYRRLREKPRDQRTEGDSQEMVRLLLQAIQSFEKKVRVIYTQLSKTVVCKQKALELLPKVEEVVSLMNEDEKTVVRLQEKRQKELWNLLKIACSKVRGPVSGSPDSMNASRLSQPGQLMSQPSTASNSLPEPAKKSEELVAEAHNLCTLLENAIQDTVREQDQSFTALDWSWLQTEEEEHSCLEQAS

`O=C(N[C@@H](C1CC1)C(F)(F)F)c1cc(-c2cnn3cc(-c4ccc(F)cc4)cnc23)cs1` gave a fold change (FC) [1] of 0 and a fold change (FC) [2] of 0.01.
`CNC(=O)c1ccccc1Oc1nc(Nc2cc(OC)c(OC)c(OC)c2)ncc1Br` showed an inhibition [3] of 0% and an inhibition [4] of 3%.
`CC(C)[C@H](NC(=O)c1cc(-c2cnn3cc(-c4ccc(OCCN5CCCCC5)cc4)cnc23)cs1)C(F)(F)F` was tested, and the fold change (FC) [5] was 0.
